# pEC50: −log10 of the molar value. Marks after values point to notes of the source that are not given here.
# Experiments:
# THRα = THRα (Homo sapiens, UniProt P10827); assay: HTRF test of agonist-induced SRC3-2 coactivator peptide recruitment to THRα-LBD; format: biochemical
# Method: 1. Experiment of binding of compounds to THRβ and THRα
# Test principle: The effect of test compounds on THRβ and THRα was tested by using a method of HTRF. An MAb Anti GST-Eu cryptate antibody binds to GST-tagged THRα-LBD (or THRβ-LBD), while Streptavidin-XL665 binds to a biotin-labeled SRC3-2 coactivator peptide. […] At the same time, the resulting decrease in the distance between XL665-labeled SRC3-2 and an Eu-anti-GST antibody increases a THRFRET signal. The agonistic capacity at this target was assessed by the effect of compounds on the activity of THRα-LBD (THRβ-LBD) at different concentrations.
# • (1) a 1×reaction solution was prepared. • (2) Preparation of compounds: the compound test starting concentration was 20 µM, 3-fold dilution was performed, 10 concentrations were set, and duplicate testing was set for each concentration. 100-fold dilution was performed in a 384-well Source plate to a corresponding solution with a final concentration, and then 200 nL of the solution was transferred to a 384-well reaction plate with Echo550 to be tested. 200 nL of 100% DMSO and a test article were respectively transferred to Min and Max wells. • (3) A 2×protein solution was prepared from the 1×reaction solution. • (4) A 4×SRC3-2 solution was prepared from the 1×reaction solution. • (5) A mixed solution of 4×GST-Eu cryptate and XL665 was prepared from the 1×reaction solution. • (6) 10 µl of the 2×protein solution was added to each well of the reaction plate, centrifugation was performed at 1000 rpm for 1 min, and incubation was performed at room temperature for 30 min. • (7) 5 µl of the 4×SRC3-2 solution was added to each well of the reaction plate, and centrifugation was performed at 1000 rpm for 1 min. • (8) 5 µL of the mixed solution of 4×GST-Eu cryptate and XL665 was added to each well of the reaction plate, centrifugation was performed at 1000 rpm for 1 min, and incubation was performed at 25°C. • (9) A fluorescence signal was read by using EnVision.
# THRα test procedures were the same as above.
# [1] = Comparison of compound metabolites by human liver microsome incubation (LC-MS/MS); format: in vitro ADME; conditions: 10 µM compound, human liver microsome 1.0 mg/mL, β-NADPH 1.0 mM, 37°C, 60 min
# Method: The purpose of this experiment was to evaluate the comparison of the content of major metabolites of human liver microsome incubated compounds.
# Sample treatment: a sample was precipitated with acetonitrile (ACN) containing 0.1% formic acid in a ratio of 1:2, and further centrifuged. A supernatant was dried with a nitrogen flow. A residue was reconstituted in […] of 10% ACN and 90% H2O containing 0.1% formic acid. […] of the reconstituted material was injected into an LC-MS/MS system for analysis.
# [2] = In vivo pharmacokinetic study of elimination phase half-life after single IV bolus; design: species or system Sprague Dawley rats; conditions: rat, blood, iv, I.V bolus, 5 mg/kg, rats, read-out: Elimination phase half-life (T1/2) (converted)
# Method: Blood samples were collected from animals (IV group) before administration and at time points of 0.083 h, 0.25 h, 0.5 h, 1 h, 2 h, 4 h, 8 h, and 24 h after the end of administration. • Sample treatment: prior to blood collection, a centrifuge tube with 10 µl of EDTA-K2 and 1.2 mL of 50% acetonitrile-DMSO (a volume ratio of whole blood to 50% acetonitrile-DMSO is approximately 1:4) was placed in an ice box filled with crushed ice. The collected blood was added to the centrifuge tube, vortexed for at least 5 min, and then temporarily stored and transported in the ice box filled with crushed ice; and the blood was centrifuged at 12,000 g for 10 min at 4°C, wherein centrifugation was completed within 1 h after blood collection. A whole blood supernatant after centrifugation was transferred to a newly labeled tube, and transferred to -60°C or below for storage for analytical testing.
# NASH model of B-DIO mice = assay: Efficacy test in NASH model of B-DIO mice (HFD + CCL4); format: in vivo; conditions: for area proportion of lipid droplets in the liver (oil red O) compared with the model group G2: Day 26, result in words (FIG. 8); for liver fibrosis (Sirius red) compared with the model group G2: Day 26, result in words (FIG. 9)
# Description: An objective of this experiment was to evaluate the pharmacodynamics of compounds of the present invention by using an NASH model of B-DIO mice.
# Five C57BL/6 mice on normal diet were assigned to an experimental group G1, and 25 B-DIO mice were randomly assigned to five experimental groups according to the body weight, with 5 mice in each group.
# The day of grouping was Day-1, intraperitoneal injection was started on Day 0 in the groups G2-G6 for CCL4 modeling, the concentration of a modeling agent is 0.2 µl/g, the modeling frequency was twice a week, and administration was started on Day 0.
# The body weight was measured twice a week after grouping. At the end of the experiment (Day 26), the mice were fasted for 4 h, and non-anticoagulated blood of the mice in the groups G1-G6 was collected and centrifuged, and a serum was taken for blood biochemical testing. Livers in the groups G1-G6 were collected and weighed, 20 mg of the liver was weighed for determination of TC and TG, and the remaining liver was placed in formalin for fixation for pathological observation.
# [3] = liver, Day 26, 0.3 mg/kg I.G. Q.D., HFD+CCL4, mean±standard error
# [4] = liver, Day 26, 1 mg/kg I.G. Q.D., HFD+CCL4, mean±standard error
# [5] = liver, Day 26, 2 mg/kg I.G. Q.D., HFD+CCL4, mean±standard error
# [6] = serum, Day 26, 1 mg/kg I.G. Q.D., HFD+CCL4, mean±standard error
# THRα, sequence (P10827 148-410 isoform P10827-2 limits assumed, other chains not shown): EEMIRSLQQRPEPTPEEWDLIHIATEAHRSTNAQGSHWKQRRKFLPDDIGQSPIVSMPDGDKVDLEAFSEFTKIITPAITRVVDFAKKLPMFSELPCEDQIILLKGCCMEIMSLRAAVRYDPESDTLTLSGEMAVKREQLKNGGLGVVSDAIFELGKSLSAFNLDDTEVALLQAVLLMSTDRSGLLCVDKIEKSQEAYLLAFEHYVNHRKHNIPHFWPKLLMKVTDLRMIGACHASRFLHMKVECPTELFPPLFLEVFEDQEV
smiles,measurement,setting,value
[2H]C([2H])([2H])C(c1c(C)c(Oc2c(Cl)cc(-n3nc(CF)c(=O)[nH]c3=O)cc2Cl)n[nH]c1=O)C([2H])([2H])[2H] [Compound 6],pEC50,"THRα; HTRF, starting concentration 20 µM, 3-fold dilution, 10 concentrations, duplicate",< 5.30
same,agonistic activity on THRα,THRα; result in words,weak agonistic activity on THRα
same,Monooxidized metabolite percent content (%),[1],3.0%
same,Monooxidized metabolite percent content (%),[1]; listed as compound 6,3%
same,half-life,[2],7.8 h
same,area proportion of lipid droplets in the liver (oil red O) compared with the model group G2,"NASH model of B-DIO mice; G4, 0.3 mg/kg",decreased significantly
same,liver fibrosis (Sirius red) compared with the model group G2,"NASH model of B-DIO mice; G4, 0.3 mg/kg",certain improvement effects on liver fibrosis
same,effects of reducing liver fat accumulation and inhibiting liver fibroplasia compared with Resmetirom (G3),"NASH model of B-DIO mice; G4-G6 (0.3, 1, 2 mg/kg) versus Resmetirom 3 mg/kg, result in words",better effects of reducing liver fat accumulation and inhibiting liver fibroplasia than Resmetirom
same,area proportion of lipid droplets in the liver (oil red O) compared with the model group G2,"NASH model of B-DIO mice; G5, 1 mg/kg",decreased significantly
same,liver fibrosis (Sirius red) compared with the model group G2,"NASH model of B-DIO mice; G5, 1 mg/kg",certain improvement effects on liver fibrosis
same,area proportion of lipid droplets in the liver (oil red O) compared with the model group G2,"NASH model of B-DIO mice; G6, 2 mg/kg",decreased significantly
same,liver fibrosis (Sirius red) compared with the model group G2,"NASH model of B-DIO mice; G6, 2 mg/kg",certain improvement effects on liver fibrosis
same,decrease of liver TC compared with the model group G2,"NASH model of B-DIO mice; group G4, 0.3 mg/kg, Day 26",24.9%
same,decrease of liver TG compared with the model group G2,"NASH model of B-DIO mice; group G6, 2 mg/kg, Day 26",35.9%
same,TC,NASH model of B-DIO mice; [3],46.76 ± 1.53 µmol/g
same,TG,NASH model of B-DIO mice; [3],59.02 ± 2.79 µmol/g
same,TC,NASH model of B-DIO mice; [4],46.35 ± 1.39 µmol/g
same,TG,NASH model of B-DIO mice; [4],54.34 ± 2.45 µmol/g
same,TC,NASH model of B-DIO mice; [5],44.99 ± 1.87 µmol/g
same,TG,NASH model of B-DIO mice; [5],54.34 ± 3.54 µmol/g
same,TG,"NASH model of B-DIO mice; serum, Day 26, 0.3 mg/kg I.G. Q.D., HFD+CCL4, mean±standard error",1.03 ± 0.06 mM
same,ALT (U/L),NASH model of B-DIO mice; [6],1080.58±88.36 U/L
same,AST (U/L),NASH model of B-DIO mice; [6],501.72±42.35* *** U/L
same,TG,NASH model of B-DIO mice; [6],1.06 ± 0.07 mM
same,TG,"NASH model of B-DIO mice; serum, Day 26, 2 mg/kg I.G. Q.D., HFD+CCL4, mean±standard error",1.06 ± 0.09 mM

# Source: patent EP4763841A1, “PYRIDAZINONE COMPOUND AND USE THEREOF” (Xi'an Xintong Pharmaceutical Research Co., Ltd., priority 2023, dated 2025)
